Reference: patent US20250325562A1, “Intravenous Ganaxolone Formulations and Methods of Use in Treating Status Epilepticus and Other Seizure Disorders” (MARINUS PHARMACEUTICALS, INC., priority 2015, published 2025)

Test system: pilocarpine induced status epilepticus (SE)
Assay: Pilocarpine-induced status epilepticus in rats, cortical EEG power
Format: in vivo, Male Sprague-Dawley rats
Set-up: key to Treatment effect on EEG power vs vehicle, significance: * P < 0.05; ** P < 0.01; *** P < 0.001; **** P < 0.0001; ns = not significant
Protocol: This study was designed to determine the ability of a CAPTISOL-ganaxolone (GNX) formulation administered intravenously (IV) at 12 and 15 mg/kg to inhibit pilocarpine induced status epilepticus (SE). Allopregnanolone (Allo) (15 mg/kg; IV) was also evaluated for comparison. In this study, test drugs were administered either 15 or 60 minutes after onset of SE and compared to vehicle (30% Captisol).
Cortical EEG activity was recorded in rats before and after administration of pilocarpine to induce SE. Animals were pre-treated with LiCl to enhance and improve reliability of seizure induction and scopolamine to reduce peripheral cholinergic side effects of pilocarpine. EEG activity was recorded for 5 h after SE onset, and anticonvulsant activity was assessed by determining changes in EEG power over frequency ranges from 0.3 to 96 Hz.
Male Sprague-Dawley rats were used for the studies. Rats were surgically implanted with EEG electrodes and jugular vein catheters. The mean weight at the time of recording was 321+3 g (269-351 g).
EEG electrodes were surgically implanted in anesthetized rats. Animals were also treated with an anti-inflammatory anaelgesic (RIMADYL, (carprofen)) prior to surgery and a subcutaneous local anesthetic. Stainless steel screw electrodes chronically were implanted in the skull (0-80×¼″, Plastics-One, Roanoke, VA) such that the ends of the screws were flush with the inner skull surface. One electrode was located 3.0 mm anterior to bregma and 2 mm to the left of midline, and the second 4.0 mm posterior to bregma and 2.5 mm to the right of midline. The skull surface around the electrodes was sealed with super glue and dental acrylic, and the EEG electrode lead wires were inserted into a plastic pedestal mounted on the skull using dental acrylic. Wound edges were treated with triple antibiotic cream (bacitracin zinc, neomycin sulfate, polymyxin B sulfate; Walgreens). Following surgery, animals were administered antibiotic (ampicillin, 50 mg/kg IP at 0.4 mL/kg) and also received a chewable dose (˜10 mg) of Rimadyl following surgery. The animals were allowed to recover from EEG surgery for 1 week.
Rats were implanted with jugular-vein catheters (JVC) one week following EEG surgery. Rats were administered an anti-inflammatory/analgesic and then anesthetized and placed in a supine position. An incision was made in the skin on the right ventrolateral aspect of the neck to expose the external jugular vein which was then dissected free of surrounding fascia. A ligature was tied around the vein anteriorly to occlude blood flow returning to the heart. A second ligature was loosely tied around the vein posteriorly to create tension on the vessel during venotomy and catheter insertion. After incising the vein, a PE catheter (3Fr) was inserted into the vein and advanced approximately 30 mm towards the heart, positioning the tip at the junction of the precava and right atrium. After confirming patency of the catheter by blood withdrawal, the posterior ligature was tied off, and the catheter flushed with a “heparin-lock” solution (5 units heparin/ml saline) and plugged with a sterilized stainless steel pin. The catheter was then exteriorized by tunneling through the subcutaneous tissue to exit posterior to the head between the shoulder blades. Lastly, after suturing the catheter to the skin, all wounds were closed using sutures or wound clips. Immediately following surgery, the animals were awakened to assess catheter patency. Animals also received a chewable dose (˜10 mg) of Rimadyl following surgery to minimize pain and inflammation.
Animals were allowed a 1-week recovery time following JVC surgery. Jugular vein catheters were flushed daily with a 0.1 mL of heparin solution (5 units/mL) to maintain patency. On the day of surgery, the flushing solution contained ampicillin sulbactam (50 mg/kg). […]

CC(=O)[C@H]1CC[C@H]2[C@@H]3CC[C@H]4C[C@](C)(O)CC[C@]4(C)[C@H]3CC[C@]12C [Ganaxolone, 3α-hydroxy, 3β-methyl-5α-pregnan-20-one]
Treatment effect on EEG power vs vehicle, significance (12 mg/kg IV, 60 min post SE onset, 10-30 Hz, 3-5 hrs post drug): ns | Treatment effect on EEG power vs vehicle, significance (12 mg/kg IV, 60 min post SE onset, 10-30 Hz, 15-30 min post drug): ** (** P < 0.01) | Treatment effect on EEG power vs vehicle, significance (12 mg/kg IV, 60 min post SE onset, 10-30 Hz, 30-60 min post drug): ** (** P < 0.01) | Treatment effect on EEG power vs vehicle, significance (12 mg/kg IV, 60 min post SE onset, 30-50 Hz, 0-15 min. post drug): ns | Treatment effect on EEG power vs vehicle, significance (12 mg/kg IV, 60 min post SE onset, 30-50 Hz, 1-2 hrs post drug): ** (** P < 0.01) | Treatment effect on EEG power vs vehicle, significance (12 mg/kg IV, 60 min post SE onset, 30-50 Hz, 2-3 hrs post drug): * (* P < 0.05) | Treatment effect on EEG power vs vehicle, significance (12 mg/kg IV, 60 min post SE onset, 30-50 Hz, 3-5 hrs post drug): ns | Treatment effect on EEG power vs vehicle, significance (12 mg/kg IV, 60 min post SE onset, 30-50 Hz, 15-30 min post drug): ns | Treatment effect on EEG power vs vehicle, significance (12 mg/kg IV, 60 min post SE onset, 30-50 Hz, 30-60 min post drug): * (* P < 0.05) | Treatment effect on EEG power vs vehicle, significance (12 mg/kg IV, 60 min post SE onset, 50-70 Hz, 0-15 min. post drug): ns | Treatment effect on EEG power vs vehicle, significance (12 mg/kg IV, 60 min post SE onset, 50-70 Hz, 1-2 hrs post drug): ** (** P < 0.01) | Treatment effect on EEG power vs vehicle, significance (12 mg/kg IV, 60 min post SE onset, 50-70 Hz, 15-30 min post drug): * (* P < 0.05) | Treatment effect on EEG power vs vehicle, significance (12 mg/kg IV, 60 min post SE onset, 50-70 Hz, 30-60 min post drug): ** (** P < 0.01) | Treatment effect on EEG power vs vehicle, significance (15 mg/kg IV, 15 min post SE onset, 0-5 Hz, 0-15 min. post drug): **** (**** P < 0.0001) | Treatment effect on EEG power vs vehicle, significance (15 mg/kg IV, 15 min post SE onset, 0-5 Hz, 1-2 hrs post drug): **** (**** P < 0.0001) | Treatment effect on EEG power vs vehicle, significance (15 mg/kg IV, 15 min post SE onset, 0-5 Hz, 2-3 hrs post drug): **** (**** P < 0.0001) | Treatment effect on EEG power vs vehicle, significance (15 mg/kg IV, 15 min post SE onset, 0-5 Hz, 3-5 hrs post drug): *** (*** P < 0.001) | Treatment effect on EEG power vs vehicle, significance (15 mg/kg IV, 15 min post SE onset, 0-5 Hz, 15-30 min post drug): **** (**** P < 0.0001) | Treatment effect on EEG power vs vehicle, significance (15 mg/kg IV, 15 min post SE onset, 0-5 Hz, 30-60 min post drug): **** (**** P < 0.0001) | Treatment effect on EEG power vs vehicle, significance (15 mg/kg IV, 15 min post SE onset, 5-10 Hz, 0-15 min. post drug): **** (**** P < 0.0001) | Treatment effect on EEG power vs vehicle, significance (15 mg/kg IV, 15 min post SE onset, 5-10 Hz, 1-2 hrs post drug): **** (**** P < 0.0001) | Treatment effect on EEG power vs vehicle, significance (15 mg/kg IV, 15 min post SE onset, 5-10 Hz, 2-3 hrs post drug): *** (*** P < 0.001) | Treatment effect on EEG power vs vehicle, significance (15 mg/kg IV, 15 min post SE onset, 5-10 Hz, 3-5 hrs post drug): ns | Treatment effect on EEG power vs vehicle, significance (15 mg/kg IV, 15 min post SE onset, 5-10 Hz, 15-30 min post drug): **** (**** P < 0.0001) | Treatment effect on EEG power vs vehicle, significance (15 mg/kg IV, 15 min post SE onset, 5-10 Hz, 30-60 min post drug): **** (**** P < 0.0001) | Treatment effect on EEG power vs vehicle, significance (15 mg/kg IV, 15 min post SE onset, 10-30 Hz, 0-15 min. post drug): **** (**** P < 0.0001) | Treatment effect on EEG power vs vehicle, significance (15 mg/kg IV, 15 min post SE onset, 10-30 Hz, 1-2 hrs post drug): ** (** P < 0.01) | Treatment effect on EEG power vs vehicle, significance (15 mg/kg IV, 15 min post SE onset, 10-30 Hz, 2-3 hrs post drug): * (* P < 0.05) | Treatment effect on EEG power vs vehicle, significance (15 mg/kg IV, 15 min post SE onset, 10-30 Hz, 3-5 hrs post drug): ns | Treatment effect on EEG power vs vehicle, significance (15 mg/kg IV, 15 min post SE onset, 10-30 Hz, 15-30 min post drug): **** (**** P < 0.0001) | Treatment effect on EEG power vs vehicle, significance (15 mg/kg IV, 15 min post SE onset, 10-30 Hz, 30-60 min post drug): **** (**** P < 0.0001) | Treatment effect on EEG power vs vehicle, significance (15 mg/kg IV, 15 min post SE onset, 30-50 Hz, 0-15 min. post drug): *** (*** P < 0.001) | Treatment effect on EEG power vs vehicle, significance (15 mg/kg IV, 15 min post SE onset, 30-50 Hz, 1-2 hrs post drug): ** (** P < 0.01) | Treatment effect on EEG power vs vehicle, significance (15 mg/kg IV, 15 min post SE onset, 30-50 Hz, 2-3 hrs post drug): ns | Treatment effect on EEG power vs vehicle, significance (15 mg/kg IV, 15 min post SE onset, 30-50 Hz, 3-5 hrs post drug): ns | Treatment effect on EEG power vs vehicle, significance (15 mg/kg IV, 15 min post SE onset, 30-50 Hz, 15-30 min post drug): *** (*** P < 0.001) | Treatment effect on EEG power vs vehicle, significance (15 mg/kg IV, 15 min post SE onset, 30-50 Hz, 30-60 min post drug): *** (*** P < 0.001) | Treatment effect on EEG power vs vehicle, significance (15 mg/kg IV, 15 min post SE onset, 50-70 Hz, 0-15 min. post drug): ** (** P < 0.01) | Treatment effect on EEG power vs vehicle, significance (15 mg/kg IV, 15 min post SE onset, 50-70 Hz, 1-2 hrs post drug): ** (** P < 0.01) | Treatment effect on EEG power vs vehicle, significance (15 mg/kg IV, 15 min post SE onset, 50-70 Hz, 2-3 hrs post drug): ns | Treatment effect on EEG power vs vehicle, significance (15 mg/kg IV, 15 min post SE onset, 50-70 Hz, 3-5 hrs post drug): ns | Treatment effect on EEG power vs vehicle, significance (15 mg/kg IV, 15 min post SE onset, 50-70 Hz, 15-30 min post drug): ** (** P < 0.01) | Treatment effect on EEG power vs vehicle, significance (15 mg/kg IV, 15 min post SE onset, 50-70 Hz, 30-60 min post drug): ** (** P < 0.01) | Treatment effect on EEG power vs vehicle, significance (15 mg/kg IV, 15 min post SE onset, 70-96 Hz, 0-15 min. post drug): ** (** P < 0.01) | Treatment effect on EEG power vs vehicle, significance (15 mg/kg IV, 15 min post SE onset, 70-96 Hz, 1-2 hrs post drug): ** (** P < 0.01) | Treatment effect on EEG power vs vehicle, significance (15 mg/kg IV, 15 min post SE onset, 70-96 Hz, 2-3 hrs post drug): ns | Treatment effect on EEG power vs vehicle, significance (15 mg/kg IV, 15 min post SE onset, 70-96 Hz, 3-5 hrs post drug): ns | Treatment effect on EEG power vs vehicle, significance (15 mg/kg IV, 15 min post SE onset, 70-96 Hz, 15-30 min post drug): *** (*** P < 0.001) | Treatment effect on EEG power vs vehicle, significance (15 mg/kg IV, 15 min post SE onset, 70-96 Hz, 30-60 min post drug): ** (** P < 0.01) | reduction in SE amplitude (12 and 15 mg/kg IV): very strong reduction in SE amplitude overall | EEG power (dosed 15 minutes after SE-onset): reduced EEG power across all frequency ranges to levels at or below baseline for at up to 5 h | EEG power (dosed at 60′ post SE-onset, not below baseline up to 70 Hz): strongly reduced
